Numbered stars: 1 amine (or outer) side, 2 acyl side, 3 side chain; on linkers, the order of the positions; unused ones are H or OH. Bridge positions count the residues as written; N and C are the ends. Square brackets hold non-standard residues; d marks the D form. Peptide text beside a SMILES is read from it. * marks the point of attachment. C20 diacid = O=C(O)CCCCCCCCCCCCCCCCCCC(=O)*; γGlu = O=C(O)[C@H](CCC(=O)[*:2])N[*:1]; Hyp = O=C(O)[C@@H]1C[C@@H](O)CN1
Tests used:
hAMY3 receptor = molecular target: T1, hAMY3 receptor (Homo sapiens, UniProt O60896+P30988); experiment: cAMP assay for in vitro receptor activation, hAMY3-R; assay type: cell-based; conditions: cAMP assay, hAMY3 receptor; read-out: hAMY3R EC50
T1 sequence (P30988 25-474): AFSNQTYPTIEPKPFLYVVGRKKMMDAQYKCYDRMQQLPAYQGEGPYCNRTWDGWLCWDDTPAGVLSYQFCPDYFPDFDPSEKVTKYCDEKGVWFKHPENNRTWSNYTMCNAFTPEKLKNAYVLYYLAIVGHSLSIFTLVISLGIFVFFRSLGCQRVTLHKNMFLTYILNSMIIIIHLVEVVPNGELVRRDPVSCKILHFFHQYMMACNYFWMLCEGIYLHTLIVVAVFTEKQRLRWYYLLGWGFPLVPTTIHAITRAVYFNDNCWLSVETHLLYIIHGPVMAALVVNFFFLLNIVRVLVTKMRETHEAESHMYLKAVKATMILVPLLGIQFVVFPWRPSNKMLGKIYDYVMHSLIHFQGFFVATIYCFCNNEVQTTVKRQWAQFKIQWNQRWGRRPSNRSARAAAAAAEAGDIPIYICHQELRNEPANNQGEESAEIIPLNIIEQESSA
T1 sequence (O60896 24-148 partner): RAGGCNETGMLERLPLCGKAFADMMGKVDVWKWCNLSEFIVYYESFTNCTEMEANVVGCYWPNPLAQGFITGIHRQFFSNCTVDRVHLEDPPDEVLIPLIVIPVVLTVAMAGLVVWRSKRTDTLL
Outline: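 Monoclonal cell line stably overexpressing human AMY3 receptor, 2000 cells/well in DPBS with 0.05% casein and 0.5 mM IBMX. Stimulated 30 min at room temperature with graded compound doses, human amylin as positive control. cAMP accumulation read by TR-FRET after one hour.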

hAM1 receptor = hAM1 receptor (Homo sapiens, UniProt O60895+Q16602); experiment: cAMP assay for in vitro receptor activation, hAM1-R; assay type: cell-based; conditions: cAMP assay, hAM1 receptor; read-out: hAM1R EC50
Outline: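 Receptor activation, read as cAMP, was assessed in thawed cells of a monoclonal hAM1-overexpressing stable line, plated at 8000 cells/well in DPBS supplemented with 0.05% casein and 0.5 mM IBMX.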

hAM1 receptor, sequence (Q16602 23-461): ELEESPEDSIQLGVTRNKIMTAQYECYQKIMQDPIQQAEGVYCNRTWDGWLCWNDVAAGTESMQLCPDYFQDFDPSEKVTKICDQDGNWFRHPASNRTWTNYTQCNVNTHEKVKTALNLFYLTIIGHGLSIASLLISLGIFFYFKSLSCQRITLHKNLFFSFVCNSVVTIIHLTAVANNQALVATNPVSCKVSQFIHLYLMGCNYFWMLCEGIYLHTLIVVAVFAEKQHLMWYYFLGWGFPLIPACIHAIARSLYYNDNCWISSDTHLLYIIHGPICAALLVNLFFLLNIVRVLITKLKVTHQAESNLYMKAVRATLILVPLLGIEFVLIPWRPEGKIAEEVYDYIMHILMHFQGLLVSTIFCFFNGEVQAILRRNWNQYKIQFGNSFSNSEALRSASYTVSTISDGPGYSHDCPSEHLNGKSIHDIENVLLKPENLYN
hAM1 receptor, sequence (O60895 43-175 partner): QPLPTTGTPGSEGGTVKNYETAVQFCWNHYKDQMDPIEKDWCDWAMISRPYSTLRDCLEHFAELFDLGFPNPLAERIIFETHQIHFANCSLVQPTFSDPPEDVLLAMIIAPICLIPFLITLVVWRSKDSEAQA

Row | EC50 (hAMY3 receptor) | EC50 (hAM1 receptor) | SMILES
1 | 0.022 nM | 12 nM | CC[C@H](C)[C@H](NC(=O)[C@H](CCCCN)NC(=O)[C@@H](NC(=O)[C@H](CCCNC(=N)N)NC(=O)[C@@H]1CCCN1C(=O)[C@H](C)NC(=O)[C@@H](NC(=O)[C@H](CC(N)=O)NC(=O)[C@H](CC(=O)O)NC(=O)[C@H](CCCCN)NC(=O)[C@H](CC(=O)O)NC(=O)[C@H](CCCCN)NC(=O)[C@H](CC(=O)O)NC(=O)[C@@H](NC(=O)[C@H](Cc1ccccc1)NC(=O)[C@H](CCC(N)=O)NC(=O)[C@H](Cc1ccc(O)cc1)NC(=O)[C@H](CC(C)C)NC(=O)[C@H](Cc1ccccc1)NC(=O)[C@H](Cc1c[nH]cn1)NC(=O)[C@H](C)NC(=O)[C@H](CC(C)C)NC(=O)[C@H](CCCNC(=N)N)NC(=O)[C@H](CCC(N)=O)NC(=O)[C@@H](NC(=O)[C@@H](NC(=O)[C@@H]1CSSC[C@H](NC(=O)CN)C(=O)N[C@@H](CCCNC(=N)N)C(=O)N[C@@H](Cc2ccccc2)C(=O)NCC(=O)N[C@@H]([C@@H](C)O)C(=O)N1)[C@@H](C)O)C(C)C)[C@@H](C)O)C(C)C)[C@@H](C)O)C(=O)NCC(=O)N[C@@H](CO)C(=O)N[C@@H](CC(N)=O)C(=O)NCC(=O)N[C@@H](Cc1ccc(O)cc1)C(N)=O [compound 376] (H-GCRFGTCTVQRLAHFLYQFTDKDKDNVAPRTKIGSNGY-NH2; disulfide 2-7; N-terminus assumed)
2 | 0.008 nM | > 5000 nM | CC[C@H](C)[C@H](NC(=O)[C@H](CCC(N)=O)NC(=O)[C@H](Cc1c[nH]cn1)NC(=O)[C@H](C)NC(=O)[C@H](CC(C)C)NC(=O)[C@H](CCCNC(=N)N)NC(=O)[C@H](CCC(N)=O)NC(=O)[C@@H](NC(=O)[C@@H](NC(=O)[C@@H]1CSSC[C@H](NC(=O)[C@@H](N)CCCCN)C(=O)N[C@@H](CC(N)=O)C(=O)N[C@@H]([C@@H](C)O)C(=O)N[C@@H](C)C(=O)N[C@@H]([C@@H](C)O)C(=O)N1)[C@@H](C)O)C(C)C)C(=O)N[C@@H](Cc1ccc(O)cc1)C(=O)N[C@@H](CCC(N)=O)C(=O)N[C@@H](Cc1ccccc1)C(=O)N[C@H](C(=O)N[C@@H](CC(=O)O)C(=O)N[C@@H](CCCCN)C(=O)N[C@@H](CC(=O)O)C(=O)N[C@@H](CCCCN)C(=O)N[C@@H](CC(=O)O)C(=O)N[C@@H](CC(N)=O)C(=O)N[C@H](C(=O)N[C@@H](C)C(=O)N1CCC[C@H]1C(=O)N[C@H](C(=O)N[C@@H](CC(N)=O)C(=O)N[C@H](C(=O)NCC(=O)N[C@@H](CO)C(=O)N[C@@H](CC(N)=O)C(=O)NCC(=O)N1C[C@H](O)C[C@H]1C(N)=O)C(C)C)[C@@H](C)O)C(C)C)[C@@H](C)O [compound 31] (H-KCNTATCTVQRLAHQIYQFTDKDKDNVAPTNVGSNG[Hyp]-NH2; disulfide 2-7; N-terminus assumed)
3 | 0.006 nM | > 5000 nM | CC[C@H](C)[C@H](NC(=O)[C@H](CCC(N)=O)NC(=O)[C@H](CC(=O)O)NC(=O)[C@H](C)NC(=O)[C@H](CC(C)C)NC(=O)[C@H](CCCNC(=N)N)NC(=O)[C@H](C)NC(=O)[C@@H](NC(=O)[C@@H](NC(=O)[C@@H]1CSSC[C@H](NC(=O)[C@@H](N)CCCCN)C(=O)N[C@@H](CC(N)=O)C(=O)N[C@@H]([C@@H](C)O)C(=O)N[C@@H](CO)C(=O)N[C@@H]([C@@H](C)O)C(=O)N1)[C@@H](C)O)C(C)C)C(=O)N[C@H](C(=O)N[C@@H](CCC(N)=O)C(=O)N[C@@H](Cc1ccccc1)C(=O)N[C@@H](CO)C(=O)N[C@@H](CC(N)=O)C(=O)N[C@@H](CCCCN)C(=O)N[C@@H](CC(=O)O)C(=O)N[C@@H](CCCCN)C(=O)N[C@@H](C)C(=O)N[C@@H](CCC(N)=O)C(=O)N[C@H](C(=O)N[C@@H](CO)C(=O)N1CCC[C@H]1C(=O)N1CCC[C@H]1C(=O)N[C@H](C(=O)N[C@@H](CCC(=O)O)C(=O)N[C@H](C(=O)NCC(=O)N1CCC[C@H]1C(=O)N[C@@H](CC(N)=O)C(=O)N[C@@H](CO)C(=O)N1C[C@H](O)C[C@H]1C(N)=O)C(C)C)[C@@H](C)O)C(C)C)[C@@H](C)O [compound 8] (H-KCNTSTCTVARLADQITQFSNKDKAQVSPPTEVGPNS[Hyp]-NH2; disulfide 2-7; N-terminus assumed)
4 | 0.018 nM | > 5000 nM | CC[C@H](C)[C@H](NC(=O)[C@H](CCC(N)=O)NC(=O)[C@H](Cc1c[nH]cn1)NC(=O)[C@H](C)NC(=O)[C@H](CC(C)C)NC(=O)[C@H](CCCNC(=N)N)NC(=O)[C@H](CCC(N)=O)NC(=O)[C@@H](NC(=O)[C@@H](NC(=O)[C@@H]1CSSC[C@H](NC(=O)[C@H](CCCCN)NC(=O)CC[C@H](NC(=O)CCCCCCCCCCCCCCCCCCC(=O)O)C(=O)O)C(=O)N[C@@H](CC(N)=O)C(=O)N[C@@H]([C@@H](C)O)C(=O)N[C@@H](C)C(=O)N[C@@H]([C@@H](C)O)C(=O)N1)[C@@H](C)O)C(C)C)C(=O)N[C@@H](C)C(=O)N[C@@H](CCC(N)=O)C(=O)N[C@@H](Cc1ccccc1)C(=O)N[C@@H](C)C(=O)N[C@@H](CC(=O)O)C(=O)N[C@@H](CCCCN)C(=O)N[C@@H](CC(=O)O)C(=O)N[C@@H](CCCCN)C(=O)N[C@@H](CC(=O)O)C(=O)N[C@@H](CC(N)=O)C(=O)N[C@H](C(=O)N[C@@H](C)C(=O)N1CCC[C@H]1C(=O)N1CCC[C@H]1C(=O)N[C@H](C(=O)N[C@@H](CC(N)=O)C(=O)N[C@H](C(=O)NCC(=O)N[C@@H](CO)C(=O)N[C@@H](CC(N)=O)C(=O)NCC(=O)N1C[C@H](O)C[C@H]1C(N)=O)C(C)C)[C@@H](C)O)C(C)C [compound 105] ({C20 diacid-γGlu}-KCNTATCTVQRLAHQIAQFADKDKDNVAPPTNVGSNG[Hyp]-NH2; disulfide 2-7)
5 | 0.011 nM | > 5000 nM | CC[C@H](C)[C@H](NC(=O)[C@H](CCC(N)=O)NC(=O)[C@H](Cc1c[nH]cn1)NC(=O)[C@H](C)NC(=O)[C@H](CC(C)C)NC(=O)[C@H](CCCNC(=N)N)NC(=O)[C@H](CCC(N)=O)NC(=O)[C@@H](NC(=O)[C@@H](NC(=O)[C@@H]1CSSC[C@H](NC(=O)[C@@H](N)CCCCN)C(=O)N[C@@H](CC(N)=O)C(=O)N[C@@H]([C@@H](C)O)C(=O)N[C@@H](C)C(=O)N[C@@H]([C@@H](C)O)C(=O)N1)[C@@H](C)O)C(C)C)C(=O)N[C@@H](Cc1ccc(O)cc1)C(=O)N[C@@H](CCC(N)=O)C(=O)N[C@@H](Cc1ccccc1)C(=O)N[C@H](C(=O)N[C@@H](CC(=O)O)C(=O)N[C@@H](CCCCN)C(=O)N[C@@H](CC(=O)O)C(=O)N[C@@H](CCCCN)C(=O)N[C@@H](CC(=O)O)C(=O)N[C@@H](CC(N)=O)C(=O)N[C@H](C(=O)N[C@@H](C)C(=O)N[C@@H](C)C(=O)N1CCC[C@H]1C(=O)N[C@H](C(=O)N[C@@H](CC(N)=O)C(=O)N[C@H](C(=O)NCC(=O)N[C@@H](CO)C(=O)N[C@@H](CC(N)=O)C(=O)NCC(=O)N1C[C@H](O)C[C@H]1C(N)=O)C(C)C)[C@@H](C)O)C(C)C)[C@@H](C)O [compound 53] (H-KCNTATCTVQRLAHQIYQFTDKDKDNVAAPTNVGSNG[Hyp]-NH2; disulfide 2-7; N-terminus assumed)
6 | 0.008 nM | > 5000 nM | CC[C@H](C)[C@H](NC(=O)[C@H](CCC(N)=O)NC(=O)[C@H](Cc1c[nH]cn1)NC(=O)[C@H](C)NC(=O)[C@H](CC(C)C)NC(=O)[C@H](CCCNC(=N)N)NC(=O)[C@H](CCC(N)=O)NC(=O)[C@@H](NC(=O)[C@@H](NC(=O)[C@@H]1CSSC[C@H](NC(=O)[C@H](CCCCN)NC(=O)CC[C@H](NC(=O)CCCCCCCCCCCCCCCCCCC(=O)O)C(=O)O)C(=O)N[C@@H](CC(N)=O)C(=O)N[C@@H]([C@@H](C)O)C(=O)N[C@@H](C)C(=O)N[C@@H]([C@@H](C)O)C(=O)N1)[C@@H](C)O)C(C)C)C(=O)N[C@H](C(=O)N[C@@H](CCC(N)=O)C(=O)N[C@@H](Cc1ccccc1)C(=O)N[C@H](C(=O)N[C@@H](CC(=O)O)C(=O)N[C@@H](CCCCN)C(=O)N[C@@H](CC(=O)O)C(=O)N[C@@H](CCCCN)C(=O)N[C@@H](CC(=O)O)C(=O)N[C@@H](CC(N)=O)C(=O)N[C@H](C(=O)N[C@@H](C)C(=O)N1CCC[C@H]1C(=O)N1CCC[C@H]1C(=O)N[C@H](C(=O)N[C@@H](CC(N)=O)C(=O)N[C@H](C(=O)NCC(=O)N[C@@H](CO)C(=O)N[C@@H](CC(N)=O)C(=O)NCC(=O)N1C[C@H](O)C[C@H]1C(N)=O)C(C)C)[C@@H](C)O)C(C)C)[C@@H](C)O)[C@@H](C)O [compound 22] ({C20 diacid-γGlu}-KCNTATCTVQRLAHQITQFTDKDKDNVAPPTNVGSNG[Hyp]-NH2; disulfide 2-7)
